Results reported in patent US20060281673A1, “Novel peptide inhibitor of hiv fusion that disrupts the internal trimeric coiled-coil of gp41” (priority 2003, published 2006).
Values joined by “and” are separate entries in the source; they are usually repeats but may differ in a detail not shown here. Identical values can stand only once. “Also recorded” adds a separate entry of the source.

Tests used:
[1] = target: T1, C34 peptide derived from the C-terminal region of gp41 (residues 628-661) (Human immunodeficiency virus type 1 group M subtype B, UniProt P04578); experiment: Interaction with C34 by analytical ultracentrifugation or CD; format: binding, HIV-1
T1 construct: the C34 peptide comprises residues 628-661 of the C-region of HIV-1 gp41; purchased Commonwealth Biotechnologies (Richmond, Va.); host or cells: solid-phase synthesis
Description: (§1) Circular Dichroism—CD spectra of peptides (at a concentration corresponding to 0.7-0.8 A280) were recorded at 25° C. on a JASCO J-720 spectropolarimeter using a 0.05-cm path length cell.
Sedimentation Equilibrium—Sedimentation equilibrium experiments were conducted at 20.0° C. and three different rotor speeds (16,000, 20,000, and 24,000) on a Beckman Optima XL-A analytical ultracentrifuge. Peptide samples were prepared in 50 mM sodium formate buffer (pH=3) and loaded into the ultracentrifuge cells at nominal loading concentrations of ˜0.2 and 0.7-0.8 A280. Data were analyzed in terms of a single ideal solute to obtain the buoyant molecular mass, M(1−νρ), using the Optima XL-A data analysis software (Beckman). […] J. Biochem. 157:169-180)).

[2] = test system: HIV Env-mediated cell fusion; settings: read-out: fails to inhibit fusion even at concentrations as high as
[3] = Sedimentation equilibrium (analytical ultracentrifugation), oligomeric state; format: physicochemical; settings: 50 mM sodium formate pH 3, 20.0° C.
Text: […]. J. Biochem. 157:169-180)).

[4] = Circular dichroism, secondary structure; format: physicochemical; settings: CD at 25° C., program CDNN
Description: as §1

[5] = target: pre-hairpin intermediate of gp41 (Human immunodeficiency virus type 1 group M subtype B, UniProt P04578); set-up: species or system HIV-1
Sequence of pre-hairpin intermediate of gp41 (P04578 512-856): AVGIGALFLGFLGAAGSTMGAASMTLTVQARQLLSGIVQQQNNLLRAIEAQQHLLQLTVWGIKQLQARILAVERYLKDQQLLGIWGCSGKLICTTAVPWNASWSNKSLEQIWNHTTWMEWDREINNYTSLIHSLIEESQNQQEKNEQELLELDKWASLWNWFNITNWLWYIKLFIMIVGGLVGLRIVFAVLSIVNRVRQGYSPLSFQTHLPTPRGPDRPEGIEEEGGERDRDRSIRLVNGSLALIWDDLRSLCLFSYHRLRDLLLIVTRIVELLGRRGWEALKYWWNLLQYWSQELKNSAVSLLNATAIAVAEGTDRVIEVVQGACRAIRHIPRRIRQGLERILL

T1 sequence (P04578 628-661): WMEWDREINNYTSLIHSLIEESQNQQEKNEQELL

| Substance | interaction with C34 [1] | IC50 [2] [µM] | oligomeric state in solution [3] | helical content [4] [%] | optimized value of β (heterotrimerization with gp41 relative to Kref^trimer) [5] |
| --- | --- | --- | --- | --- | --- |
| SGIVQQLNNQLRAEEANQHLEQLSVWGSKQNQARRL; peptide derived from N36 with nine substitutions at positions a and d of the helical wheel (SGIVQQLNNQLRAEEANQHLEQLSVWGSKQNQARRL) [N36^Mut(a,d)] | does not interact with the C34 peptide; also recorded: No evidence of interaction | > 100 | monomeric; also recorded: monomer | ~20 |  |
| Ac-SGIDQEQNNLTRLIEAQIHELQLTQWKIKQLLARIL-NH2 [N36^Mut(e,g)] | does not interact with C34; also recorded: No evidence of interaction |  | monodisperse, helical trimer | ~80 | 2.97 and 5.76 |
